Assays:
[1] = Safety and tolerability: adverse events, laboratory, ECG, physical examination; type: in vivo, human
[2] = 28‐day toxicity study in rats; cited from earlier work
[3] = s.c. single dose 120 mg (n = 5)

## O=C(CN[C@@H]1CCNC1)N1CCC[C@H]1B(O)O [dutogliptin]
[1]; s.c. multidose 90 mg (n = 5)
  Induration, related: subjects with at least 1 AE: 4 (80%)
  Local AEs, related: subjects with at least 1 AE: 5 (100%)
  Other local AEs, related: subjects with at least 1 AE: 0
  Other systemic AEs (dizziness and nausea), related: subjects with at least 1 AE: 2 (40%)
  Pain with touching, related: subjects with at least 1 AE: 2 (40%)
  Pain without touching, related: subjects with at least 1 AE: 1 (20%)
  Swelling, related: subjects with at least 1 AE: 1 (20%)
  Systemic AEs, related: subjects with at least 1 AE: 4 (80%)
[1]; s.c. multidose 120 mg (n = 5)
  All AEs, related: subjects with at least 1 AE: 5 (100%)
  Erythema, related: subjects with at least 1 AE: 5 (100%)
  Fatigue, related: subjects with at least 1 AE: 0
  Headache, related: subjects with at least 1 AE: 0
  Hematoma, related: subjects with at least 1 AE: 0
  Induration, related: subjects with at least 1 AE: 3 (60%)
  Local AEs, related: subjects with at least 1 AE: 5 (100%)
  Other local AEs, related: subjects with at least 1 AE: 0
  Other systemic AEs, related: subjects with at least 1 AE: 0
  Pain with touching, related: subjects with at least 1 AE: 2 (40%)
  Pain without touching, related: subjects with at least 1 AE: 2 (40%)
  Swelling, related: subjects with at least 1 AE: 0
  Systemic AEs, related: subjects with at least 1 AE: 0
[1]; s.c. single dose 30 mg (n = 5)
  All AEs, related: subjects with at least 1 AE: 5 (100%)
  Erythema, related: subjects with at least 1 AE: 5 (100%)
  Fatigue, related: subjects with at least 1 AE: 0
  Headache, related: subjects with at least 1 AE: 0
  Hematoma, related: subjects with at least 1 AE: 0
  Induration, related: subjects with at least 1 AE: 0
  Local AEs, related: subjects with at least 1 AE: 5 (100%)
  Other local AEs, related: subjects with at least 1 AE: 0
  Other systemic AEs, related: subjects with at least 1 AE: 0
  Pain with touching, related: subjects with at least 1 AE: 1 (20%)
  Pain without touching, related: subjects with at least 1 AE: 0
  Swelling, related: subjects with at least 1 AE: 0
  Systemic AEs, related: subjects with at least 1 AE: 0
[1]; s.c. single dose 60 mg (n = 5)
  All AEs, related: subjects with at least 1 AE: 5 (100%)
  Erythema, related: subjects with at least 1 AE: 5 (100%)
  Fatigue, related: subjects with at least 1 AE: 0
  Headache, related: subjects with at least 1 AE: 0
  Hematoma, related: subjects with at least 1 AE: 0
  Induration, related: subjects with at least 1 AE: 1 (20%)
  Local AEs, related: subjects with at least 1 AE: 5 (100%)
  Other local AEs, related: subjects with at least 1 AE: 0
  Other systemic AEs, related: subjects with at least 1 AE: 0
  Pain with touching, related: subjects with at least 1 AE: 0
  Pain without touching, related: subjects with at least 1 AE: 0
  Swelling, related: subjects with at least 1 AE: 0
  Systemic AEs, related: subjects with at least 1 AE: 0
[1]; s.c. single dose 90 mg (n = 5)
  All AEs, related: subjects with at least 1 AE: 5 (100%)
  Erythema, related: subjects with at least 1 AE: 5 (100%)
  Fatigue, related: subjects with at least 1 AE: 0
  Headache, related: subjects with at least 1 AE: 0
  Hematoma, related: subjects with at least 1 AE: 1 (20%)
  Induration, related: subjects with at least 1 AE: 0
  Local AEs, related: subjects with at least 1 AE: 5 (100%)
  Other local AEs, related: subjects with at least 1 AE: 0
  Other systemic AEs, related: subjects with at least 1 AE: 0
  Pain with touching, related: subjects with at least 1 AE: 0
  Pain without touching, related: subjects with at least 1 AE: 0
  Swelling, related: subjects with at least 1 AE: 1 (20%)
  Systemic AEs, related: subjects with at least 1 AE: 0
[1]; [3]
  All AEs, related: subjects with at least 1 AE: 5 (100%)
  Erythema, related: subjects with at least 1 AE: 4 (80%)
  Fatigue, related: subjects with at least 1 AE: 0
  Headache, related: subjects with at least 1 AE: 1 (20%)
  Hematoma, related: subjects with at least 1 AE: 1 (20%)
  Induration, related: subjects with at least 1 AE: 2 (40%)
  Local AEs, related: subjects with at least 1 AE: 4 (80%)
  Other local AEs (burning sensation at the injection site), related: subjects with at least 1 AE: 1 (20%)
  Other systemic AEs, related: subjects with at least 1 AE: 0
  Pain with touching, related: subjects with at least 1 AE: 0
  Pain without touching, related: subjects with at least 1 AE: 0
  Swelling, related: subjects with at least 1 AE: 0
  Systemic AEs, related: subjects with at least 1 AE: 1 (20%)
[2]
  No observed adverse effects level: 30 mg/kg

Source: publication PMC7163368 (British Journal of Clinical Pharmacology, 2020)
